Results taken from US11312781B2, “Antigen binding molecules that bind LIGHT” (Capella Bioscience Ltd., priority 2018, dated 2022).

Assays:
[1] = test system: CMV stimulated human PBMC; experiment: Human PBMC antigen specific (CMV) recall response in vitro, cytokines by Luminex; assay type: cell-based; conditions: CMV stimulation, 5 day incubation; for IFN gamma production from PBMC: FIG. 11B
Description: In order to test the efficacy of anti-LIGHT mAbs on stimulated PBMC a recall antigen CMV (cytomegalovirus) lysate was utilised to stimulate PBMC from human CMV-positive donors (ImmunXperts, Belgium). 200 000 cells per well in RPMI (Thermofisher cat. no. 11875) plus 10% FBS (GIBCO) was added to CMV lysate (Serion immunologics cat. no. BA109VS, final concentration 10 ug/ml) with test mAbs in a volume of 200 ul. After a 5 day incubation at 37C and 5% CO2 the media was recovered by centrifugation and assayed for cytokines by Luminex immunoassay (ThermoFisher).

[2] = test system: DSS-induced colitis in hu-NOG mice; experiment: DSS-induced acute colitis in humanized (hu-NOG) mice; assay type: in vivo, mouse (hu-NOG); conditions: i.p. days 0, 3, 6, 9, versus IgG control, FIG. 9
Description: The experiments were carried out with the NOD/Shi-scid/IL-2Rγnull immunodeficient mouse strain (NOG) engrafted with CD34+ hematopoietic stem cells isolated from human cord blood as described in Manfroi B et al. (Cancer Res. 2017; 77:1097-1107). The reconstitution of the human immune system in the mice occurred for at least 14 weeks, and hu-mice were used that had at least 25% human CD45+/total CD45 cells. Female hu-NOG mice were randomised into 3 groups (n=10) taking into account the humanization rate and the CD34+ cell donors. All animal studies described in this study have been reviewed and approved by the local ethic committee (CELEAG). Mice were allowed to acclimate to the experimental environment for 5 days prior to the beginning of the experiment. The DSS was administrated for 7 days, from day 2 to 8. The DSS (3%) was added to the drinking water (ad libitum) and freshly renewed every two days.
All treatments started before the DSS-induced colitis. 3B04 variant 16 (5 mg/kg) and the isotype control and anti-TNF (Humira) antibodies (10 mg/kg) were administrated i.p. on days 0, 3, 6, 9. The experiment was terminated on day 12. The following parameters were recorded daily for 12 days: body weight in grams (g); diarrhea and stool consistency; bleeding and mortality. The global clinical score was calculated as follows: […]

Compound | IL-17 production from PBMC ([1]; FIG. 11A) | IFN gamma production from PBMC [1] | Global clinical score [2]
C[C@@H]1CCN(C(=O)CC#N)C[C@@H]1N(C)c1ncnc2[nH]ccc12 [Tofacitinib, reference compound] | inhibited | inhibited | 
Opdivo: anti-PD-1 antibody, positive control in the PBMC assay (10 ug/ml) [reference compound] |  | increased | 
adalimumab [humira, reference compound] |  |  | significant drop in the global clinical score from days 9 to 11
